Laboratory results published in PubChem BioAssay AID179 (DTP/NCI, 2004).
Where “and” joins values, the source holds several entries; their conditions need not be identical. Identical values can stand only once. Calls of active or inactive are those of the source.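 Rule for the calls: active = compounds giving half or more protection of infected cells from virus-caused growth loss, again on retest; inactive = the rest.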

Tested on: CEM cells HIV-1 protection, formazan growth assay
Experiment: NCI AIDS Antiviral Assay
Conditions: for IC50: measured here: growth of uninfected CEM cells
How it was run: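 Human CEM cells, uninfected and HIV-1-infected, received five drug concentrations, and growth was read by soluble formazan assay. Compounds giving at least 50% protection were retested; reproducible 100% protection defined confirmed active.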

Row | Compound | outcome | EC50 [µM] | IC50
1 | CC(=O)OC1CC2C(C)(C)C(=O)C=C[C@]2(C)C2CCC3(C)C(c4ccoc4)OC(=O)[C@H]4O[C@]43[C@]12C (stereo partly specified) | inactive | – | –
2 | COC1CCC(O)C(CO)O1 (stereo unspecified) | inactive | – | –
3 | O=C1c2ccc(O)cc2OC(c2cc(O)c(O)c(O)c2)C1O (stereo unspecified) | – | > 200 | 11.7 µM
4 | O=C(OCCN1CCNCC1)c1cc2ccccc2[nH]1 | – | > 200 | 26.9 µM
5 | CN1CCCC1=NC#N | – | > 200 | > 200 µM
6 | CSC(SC)=C1CC(=O)Nc2ccccc2C1=O | – | > 200 | 58.9 µM
7 | CC(=O)N1CCc2cc(S(C)(=O)=O)c3c(c21)CCC3 | inactive | – | –
8 | N#CCC1(c2ccc(Cl)cc2)NC(=O)c2ccccc21 (stereo unspecified) | – | > 200 | 117 µM
9 | Cc1ccc([N+](=O)[O-])cc1NC(=O)Nc1onc(C)c1C | – | > 200 | 9.77 µM
10 | O=C1NC2=C(CCCCC/C2=N\O)C12CCCCCC2 | inactive | – | –
11 | O=C(/C=C/c1ccccc1)CC1OC(=O)c2ccccc21 (stereo unspecified) | – | > 245 | 129 µM
12 | COc1cc2c(=O)cnoc2cc1O | – | > 200 | 26.3 µM
13 | C[N+]1(C)C/C(=C/c2ccc(F)cc2)C(=O)/C(=C\c2ccc(F)cc2)C1 | – | > 537 | 97.7 µM
14 | COc1cc2c(cc1OC)C1c3ccccc3CCN1CC2 (stereo unspecified) | – | > 200 | 93.3 µM
15 | Nc1ncnc(N)c1N=O | – | > 200 | 5.89 µM and 1.62 µM
16 | CCSC1=N/C(=C/c2ccccc2O)C(=O)N1 | – | > 200 | 123 µM
17 | COC(=O)C(C(=O)C(=O)Nc1ccc(C(F)(F)F)cc1[N+](=O)[O-])c1csc(-n2nc(-c3ccccc3)cc2-c2ccccc2)n1 (stereo unspecified) | – | > 53.7 | 39.8 µM
18 | O=C(Cc1ccccc1)OCCOCCOCCOCCOCCOCCOCCOCCOCCOC(=O)Cc1ccccc1 | inactive | – | –
19 | Cn1c(-c2ccccc2)cc(-c2ccc3c(c2)OCO3)c1-c1cccs1 | – | > 200 | > 200 µM
20 | CC(=O)[CH-]C(C)=O.CC(=O)[CH-]C(C)=O.[CH2-]CCCCCCC.[CH2-]CCCCCCC.[Sn+4] | – | > 47.9 | > 47.9 µM
21 | Cc1cc2c(c3nocc13)C(=O)c1ccccc1C2=O | inactive | – | –
22 | Nc1ccc(-c2ccc(N)c(S(=O)(=O)O)c2)cc1S(=O)(=O)O | – | > 724 | > 724 µM
23 | COC(=O)C12C3C4C1C1C2C3C41C(=O)O (stereo unspecified) | – | > 1200 | > 1200 µM

Row | Compound | outcome | EC50 [µM] | IC50
24 | O=C(O)CC(O)(CC(=O)O)C(=O)O | inactive | – | –
25 | CC(C)CCCC(C)[C@H]1CCC(C2C[C@@H](O)[C@@H]3CC(O)[C@@H](O)C[C@]3(CO)C2=O)[C@]1(C)CCO (stereo partly specified) | – | > 200 | 34.7 µM
26 | Cc1c2c(n(CCc3ccc(Cl)cc3)c1C)NN=C(C#N)S2(=O)=O | – | > 200 | 85.1 µM
27 | O=C(CSc1ncn[nH]1)C[P+](c1ccccc1)(c1ccccc1)c1ccccc1 | inactive | – | –
28 | COC(=O)[C@]1(C)CCC[C@]2(C)c3ccc(C(C)C)cc3C(=O)[C@@H](Br)[C@@H]12 | – | > 200 | 8.51 µM
29 | CC(=O)O[C@H]1CC[C@]2(C)C3=CC[C@]4(C)[C@@H](C(C)=O)CC[C@H]4[C@@]34C=C[C@]2(C1)C1C(=O)OC(=O)C14 (stereo partly specified) | – | > 200 | 70.8 µM
30 | CC(=O)OC1CC2C(=S)Nc3cc4c(cc3C(=O)N2C1)OCO4 (stereo unspecified) | – | > 200 | > 200 µM
31 | Cc1cn(C2CC=C(CO)CC2)c(=O)[nH]c1=O (stereo unspecified) | – | > 1050 | > 1050 µM
32 | CN[C@@H]1[C@H](O)[C@H](NC)[C@H]2O[C@@]3(O)C(=O)C[C@@H](C)O[C@H]3O[C@@H]2[C@H]1O | – | > 200 | > 200 µM
33 | O=[N+]([O-])c1ccc(C2CC(c3ccc(NCc4nc5ccccc5[nH]4)cc3)=NO2)cc1 (stereo unspecified) | – | > 9.12 | > 9.12 µM
34 | C=C1CCC2(C(C)=O)COC1(C)O2 (stereo unspecified) | inactive | – | –
35 | COc1cccc(/C=C2\N=C(Cl)OC2=O)c1O | – | > 20.4 | > 20.4 µM
36 | Cn1cc(NC(=O)Nc2cc(C(=O)Nc3cc(C(=O)Nc4ccc5cc(S(=O)(=O)O)cc(S(=O)(=O)O)c5c4)n(C)c3)n(C)c2)cc1C(=O)Nc1cc(C(=O)Nc2ccc3cc(S(=O)(=O)O)cc(S(=O)(=O)O)c3c2)n(C)c1 | – | 33.9 | > 100 µM
37 | NC(CO)C(=O)NCCS(=O)(=O)O (stereo unspecified) | – | > 100 | > 100 µM
38 | On1ccc(=S)c2ccccc21 | – | > 200 | 36.3 µM
39 | Cn1c2ccccc2n2c3nc4ccccc4nc3c(C#N)c12 | inactive | – | –
40 | O=C1C=C(Nc2cc(Cl)ccc2Cl)c2ccccc2C1=O | – | > 3.16 | > 3.16 µM
41 | C/C=C(\C)c1cc(OC)c(C)c2c1C(=O)Oc1c(C)c(O)c(Cl)c(/C(C)=C/C)c1O2 | inactive | – | –
42 | O=C1CC(=O)NC(=NN2C(=O)/C(=C/C(=O)c3ccco3)N=C2c2ccccc2)N1 | – | > 200 | 32.4 µM
43 | CCN(CC)CCCNc1nc2ccccc2c2c1ncn2CC(C)C | – | > 200 | 41.7 µM
44 | O=C1[C@H]2ON(c3ccccc3)C(c3cccc([N+](=O)[O-])c3)[C@H]2C(=O)N1c1ccc(Cc2ccc(N3C(=O)[C@@H]4ON(c5ccccc5)C(c5cccc([N+](=O)[O-])c5)[C@@H]4C3=O)cc2)cc1 (stereo partly specified) | – | > 6.17 | > 6.17 µM
45 | CC12Nc3ccccc3N1C(=O)c1ccccc12 (stereo unspecified) | – | > 200 | 107 µM
46 | CN/N=C(/C=C/c1ccccc1)C(C)C | – | > 200 | > 200 µM
